Earlier results, collected in US6649649B1, “Method of treating colonic adenomas” (Merck & Co., Inc., priority 1995, dated 2003).

Columns and labels:
[1] = tested on: polyps in patients with familial polyposis
[2] = tested on: sporadic colonic polyps; settings: early sporadic polyps (67% of the polyps were <5 mm)
[3] = tested on: PGHS-1 or PGHS-2
[4] = tested on: rat
[5] = tested on: incident colon cancer; settings: persons who regularly used aspirin compared to those who used no aspirin

## CC1=C(CC(=O)O)c2cc(F)ccc2/C1=C\c1ccc([S+](C)[O-])cc1 (centres unmarked) [sulindac]
[1]
  polyp regression: results in polyp regression
[2]
  regression of sporadic colonic polyps: did not result in a regression
[3]
  inhibition of PGHS-1 and PGHS-2: inhibiting both PGHS-1 and PGHS-2

## COc1ccc2c(c1)c(CC(=O)O)c(C)n2C(=O)c1ccc(Cl)cc1 [indomethacin]
[3]
  selectivity for inhibition of either PGHS-1 or PGHS-2: little selectivity

## CS(=O)(=O)Nc1ccc([N+](=O)[O-])cc1OC1CCCCC1 [NS-398]
[3]
  selectivity for inhibition of either PGHS-1 or PGHS-2: selective PGHS-2 inhibitor
[4]
  analgesic effect: analgesic effects
  antiinflammatory effect: antiinflammatory
  antipyretic effect: antipyretic
  ulcerogenicity: without being ulcerogenic

## CC(=O)Oc1ccccc1C(=O)O [aspirin]
[5]
  lower risk of incident colon cancer: 40%
[3]
  selectivity for inhibition of either PGHS-1 or PGHS-2: little selectivity
